Measured values as given in patent US8013006B2.
Like-named read-outs stand apart in the source and are kept apart here.

Test system: HCV replicon
Assay: microbe, parasite or virus in culture
Type: cell-based
Conditions: read-out: Replicon IC5Os
[1] = Replicon IC50 values are determined by firefly luciferase signal, bicistronic replicon, 2 days

Compound	IC50 [1] [nM]	IC50 (Hepatitis C virus, 48 h) [nM]
CCCCOC(=O)Nc1cccc(-c2c(C#N)c3ccc(OC)cc3n2CC)c1 [Compound 300]	500 to 2000	
CCn1c(-c2cccc(NC(=O)OCCCCl)c2)c(C#N)c2ccc(OC)cc21 [Compound 301]		500 to 2000
CCn1c(-c2cccc(NC(=O)OCCF)c2)c(C#N)c2ccc(OC)cc21 [Compound 302]		500 to 2000
CCn1c(-c2cccc(NC(=O)OCc3ccccc3)c2)c(C#N)c2ccc(OC)cc21 [Compound 304]		500 to 2000
CCn1c(-c2cccc(NC(=O)Oc3ccc(OC)cc3)c2)c(C#N)c2ccc(OC)cc21 [Compound 305]	> 2000	
CCn1c(-c2cccc(NC(=O)Oc3ccc(Cl)cc3)c2)c(C#N)c2ccc(OC)cc21 [Compound 306]		500 to 2000
CCn1c(-c2cccc(NC(=O)Oc3ccc(F)cc3)c2)c(C#N)c2ccc(OC)cc21 [Compound 307]	500 to 2000	
CCn1c(-c2cccc(NC(=O)Oc3ccc(Br)cc3)c2)c(C#N)c2ccc(OC)cc21 [Compound 309]		500 to 2000
CCn1c(-c2cccc(NC(=O)OC(C)C)c2)c(C#N)c2ccc(OC)cc21 [Compound 310]		500 to 2000
CCn1c(-c2ccc(NC(=O)OCC(C)C)cc2)c(C#N)c2ccc(OC)cc21 [Compound 311]	> 2000	
CCCOC(=O)Nc1ccc(-c2c(C#N)c3ccc(OC)cc3n2CC)cc1 [Compound 312]	> 2000	
CCn1c(-c2ccc(NC(=O)OCCOC)cc2)c(C#N)c2ccc(OC)cc21 [Compound 313]	> 2000	
C=CCOC(=O)Nc1ccc(-c2c(C#N)c3ccc(OC)cc3n2CC)cc1 [Compound 314]	> 2000	
CCn1c(-c2ccc(NC(=O)OCCCCl)cc2)c(C#N)c2ccc(OC)cc21 [Compound 315]	> 2000	
CCn1c(-c2ccc(NC(=O)OC3C[C@H](C)CC[C@H]3C(C)C)cc2)c(C#N)c2ccc(OC)cc21 (stereo partly drawn) [Compound 316]	> 2000	
CCn1c(-c2ccc(NC(=O)OCCF)cc2)c(C#N)c2ccc(OC)cc21 [Compound 317]	> 2000	
CCn1c(-c2ccc(NC(=O)Oc3ccc(Cl)cc3)cc2)c(C#N)c2ccc(OC)cc21 [Compound 318]	> 2000	
CCn1c(-c2ccc(NC(=O)Oc3ccc(F)cc3)cc2)c(C#N)c2ccc(OC)cc21 [Compound 319]	> 2000	
CCn1c(-c2ccc(NC(=O)Oc3ccc(C)cc3)cc2)c(C#N)c2ccc(OC)cc21 [Compound 320]	> 2000	
CCn1c(-c2cccc(C(=O)NCCCN3CCOCC3)c2)c(C#N)c2ccc(OC)cc21 [Compound 323]	> 2000	
CCn1c(-c2cccc(NC(=O)CCl)c2)c(C#N)c2ccc(OC)cc21 [Compound 324]	> 2000	

Compound	IC50 [1] [nM]	IC50 (Hepatitis C virus, 48 h) [nM]
CCn1c(-c2cccc(NC(=O)c3ccccc3)c2)c(C#N)c2ccc(OC)cc21 [Compound 326]	> 2000	
CCn1c(-c2cccc(NC(=O)c3ccco3)c2)c(C#N)c2ccc(OC)cc21 [Compound 327]	> 2000	
CCn1c(-c2cccc(NC(=O)c3cc(C)on3)c2)c(C#N)c2ccc(OC)cc21 [Compound 328]	> 2000	
CCn1c(-c2cccc(NC(C)=O)c2)c(C#N)c2ccc(OC)cc21 [Compound 329]	> 2000	
CCn1c(-c2cccc(NC(=O)c3ccc4nonc4c3)c2)c(C#N)c2ccc(OC)cc21 [Compound 330]	> 2000	
CCn1c(-c2cccs2)c(C#N)c2ccc(OC)cc21 [Compound 337]	> 2000	
CCn1c(-c2cccc3c2oc2ccccc23)c(C#N)c2ccc(OC)cc21 [Compound 338]	> 2000	
CCCn1c(-c2ccc(NS(=O)(=O)CC)cc2)cc2ccc(OC)cc21 [Compound 343]	> 2000	
CCn1c(-c2cn(Cc3ccccc3)cn2)c(C#N)c2ccc(OC)cc21 [Compound 347]	> 2000	
CCn1c(-c2cc[nH]n2)c(C#N)c2ccc(OC)cc21 [Compound 348]	> 2000	
CCC(C)OC(=O)Nc1cccc(-c2c(C#N)c3ccc(OC)cc3n2CC)c1 (stereo not drawn) [Compound 349]		< 500
C#CCOC(=O)Nc1cccc(-c2c(C#N)c3ccc(OC)cc3n2CC)c1 [Compound 350]		500 to 2000
C=CC(C)OC(=O)Nc1cccc(-c2c(C#N)c3ccc(OC)cc3n2CC)c1 (stereo not drawn) [Compound 351]		500 to 2000
C#CCCOC(=O)Nc1cccc(-c2c(C#N)c3ccc(OC)cc3n2CC)c1 [Compound 352]	500 to 2000	
CCn1c(-c2cccc(NC(=O)OC)c2)c(C#N)c2ccc(OC)cc21 [Compound 353]		< 500
CC#CCOC(=O)Nc1cccc(-c2c(C#N)c3ccc(OC)cc3n2CC)c1 [Compound 354]	500 to 2000	
CCn1c(-c2cccc(NC(=O)OCCl)c2)c(C#N)c2ccc(OC)cc21 [Compound 355]	> 2000	
CCn1c(-c2cccc(NC(=O)OCC(C)(C)C)c2)c(C#N)c2ccc(OC)cc21 [Compound 356]	> 2000	
CCC(C)OC(=O)Nc1ccc(-c2c(C#N)c3ccc(OC)cc3n2CC)cc1 (stereo not drawn) [Compound 357]	> 2000	
C#CCOC(=O)Nc1ccc(-c2c(C#N)c3ccc(OC)cc3n2CC)cc1 [Compound 358]	> 2000	
C=CC(C)OC(=O)Nc1ccc(-c2c(C#N)c3ccc(OC)cc3n2CC)cc1 (stereo not drawn) [Compound 359]	> 2000	

Compound	IC50 [1] [nM]	IC50 (Hepatitis C virus, 48 h) [nM]
C#CCCOC(=O)Nc1ccc(-c2c(C#N)c3ccc(OC)cc3n2CC)cc1 [Compound 360]	> 2000	
CCn1c(-c2ccc(S(=O)(=O)NC3CC3)cc2)c(C#N)c2ccc(OC)cc21 [Compound 363]	500 to 2000	
CCn1c(-c2ccc(NS(C)(=O)=O)cc2)c(C#N)c2ccc(C(F)(F)F)cc21 [Compound 365]		< 500
CCn1c(-c2ccc(NS(C)(=O)=O)cc2)c(C#N)c2ccccc21 [Compound 371]	> 2000	
CCOC(=O)Nc1ccc(-c2c(C#N)c3ccccc3n2CC)cc1 [Compound 372]	500 to 2000	
CCn1c(-c2cccc(S(N)(=O)=O)c2)c(C#N)c2ccc(OC)cc21 [Compound 373]	> 2000	
CCCNS(=O)(=O)c1ccc(-c2c(C#N)c3ccc(OC)cc3n2CC)cc1 [Compound 374]	> 2000	
CCn1c(-c2cccc(N)c2)c(C#N)c2ccc(O)cc21 [Compound 376]	> 2000	
CCn1c(-c2ccc(C(=O)N3CCCNCC3)cc2)c(C#N)c2ccc(OC)cc21 [Compound 377]	> 2000	
CCn1c(-c2ccc(C(=O)Nc3ccc(Cl)c(Cl)c3)cc2)c(C#N)c2ccc(OC)cc21 [Compound 380]	> 2000	
CCn1c(-c2ccc(C(=O)Nc3ccc(C)cc3)cc2)c(C#N)c2ccc(OC)cc21 [Compound 381]	> 2000	
CCn1c(-c2ccc(C(=O)Nc3ccc(Cl)cc3)cc2)c(C#N)c2ccc(OC)cc21 [Compound 382]	500 to 2000	
CCn1c(-c2cccc(NC(=O)C(C)C)c2)c(C#N)c2ccc(OC)cc21 [Compound 383]	> 2000	
CCn1c(-c2ccc(C(=O)NC(C)C)cc2)c(C#N)c2ccc(OC)cc21 [Compound 385]	500 to 2000	
CCn1c(-c2ccc(C(=O)NC3CC3)cc2)c(C#N)c2ccc(OC)cc21 [Compound 386]	> 2000	
CCn1c(-c2ccc(C(=O)N3CCC3)cc2)c(C#N)c2ccc(OC)cc21 [Compound 387]	> 2000	
CCn1c(-c2ccc(C(=O)NCCO)cc2)c(C#N)c2ccc(OC)cc21 [Compound 388]	> 2000	
CCn1c(-c2ccc(C(=O)NCCCN3CCOCC3)cc2)c(C#N)c2ccc(OC)cc21 [Compound 389]	> 2000	
CCn1c(-c2ccc(C(=O)Nc3ccccc3)cc2)c(C#N)c2ccc(OC)cc21 [Compound 390]	> 2000	
CCn1c(-c2ccc(C(=O)Nc3ccc(OC)c(OC)c3)cc2)c(C#N)c2ccc(OC)cc21 [Compound 392]	> 2000	
CCn1c(-c2ccc(N)cc2)c(C#N)c2cc(Cl)ccc21 [Compound 393]	500 to 2000	

Compound	IC50 [1] [nM]	IC50 (Hepatitis C virus, 48 h) [nM]
CCn1c(-c2ccc(NS(C)(=O)=O)cc2)c(C#N)c2cc(Cl)ccc21 [Compound 394]	< 500	
CCn1c(-c2cccc(NC(=O)NCCCl)c2)c(C#N)c2ccc(OC)cc21 [Compound 395]	500 to 2000	
CCCNC(=O)Nc1cccc(-c2c(C#N)c3ccc(OC)cc3n2CC)c1 [Compound 396]		< 500
CCn1c(-c2cccc(NC(=O)NC(C)C)c2)c(C#N)c2ccc(OC)cc21 [Compound 397]		< 500
CCCCNC(=O)Nc1cccc(-c2c(C#N)c3ccc(OC)cc3n2CC)c1 [Compound 398]		< 500
C=CCNC(=O)Nc1cccc(-c2c(C#N)c3ccc(OC)cc3n2CC)c1 [Compound 399]		< 500
CCn1c(-c2cccc(NC(=O)NCCCCl)c2)c(C#N)c2ccc(OC)cc21 [Compound 400]	500 to 2000	
CCNC(=O)Nc1cccc(-c2c(C#N)c3ccc(OC)cc3n2CC)c1 [Compound 401]		< 500
CCn1c(-c2cccc(NC(=O)NCCc3ccccc3)c2)c(C#N)c2ccc(OC)cc21 [Compound 402]	500 to 2000	
CCn1c(-c2cccc(NC(=O)Nc3ccc(C(C)C)cc3)c2)c(C#N)c2ccc(OC)cc21 [Compound 403]		500 to 2000
CCn1c(-c2cccc(NC(=O)Nc3ccc(C)cc3)c2)c(C#N)c2ccc(OC)cc21 [Compound 404]	> 2000	
CCn1c(-c2cccc(NC(=O)Nc3ccccc3C)c2)c(C#N)c2ccc(OC)cc21 [Compound 405]		500 to 2000
CCn1c(-c2cccc(NC(=O)Nc3ccc(Oc4ccccc4)cc3)c2)c(C#N)c2ccc(OC)cc21 [Compound 406]		< 500
CCOC(=O)c1ccc(NC(=O)Nc2cccc(-c3c(C#N)c4ccc(OC)cc4n3CC)c2)cc1 [Compound 407]	500 to 2000	
COc1ccc2c(C#N)c(-c3ccc(NS(C)(=O)=O)cc3)n(CC(C)C)c2c1 [Compound 409]	500 to 2000	
CCOc1ccc2cc(-c3ccc(NS(C)(=O)=O)cc3)n(CC)c2c1 [Compound 410]	500 to 2000	
CCOc1ccc2cc(-c3ccc(NS(=O)(=O)CC)cc3)n(CC)c2c1 [Compound 411]	500 to 2000	
CCCn1c(-c2ccc(NS(C)(=O)=O)cc2)cc2ccc(OCC)cc21 [Compound 412]	> 2000	
CCOc1ccc2c(C#N)c(-c3ccc(NS(=O)(=O)CC)cc3)n(C)c2c1 [Compound 414]	500 to 2000	
CCCn1c(-c2ccc(NS(C)(=O)=O)cc2)c(C#N)c2ccc(OCC)cc21 [Compound 417]	< 500	
CCOc1ccc2c(C#N)c(-c3ccc(NS(C)(=O)=O)cc3)n(C(C)C)c2c1 [Compound 419]	500 to 2000	
